# In patent publication US7268147B2, “Compounds useful for the treatment of diseases” (Pfizer Inc, priority 2003, dated 2007):
# Biological target: T1, human β2 adrenergic receptor (Homo sapiens, UniProt P07550)
# T1 construct: expressed in transfected cells; host or cells: CHO (Chinese Hamster Ovary) cells, CHOhβ2
# Assay: Cell based cAMP β2 assay (cAMP-Flashplate, CHOhβ2 cells)
# Conditions: CHO cells recombinantly expressing the human β2 adrenergic receptor
# Experimental: According to another alternative, the agonist potency for the β2 receptor of the compounds of the formula (1) may also be determined by the measure of the concentration of compound according to the present invention required to produce half maximal effect (EC50) for the β2 receptor.
# 10 mM/100% DMSO (dimethylsulfoxide) stock of compound is diluted to required top dose in 4% DMSO. This top dose is used to construct a 10-point semi-log dilution curve, all in 4% DMSO. […] Data was expressed as % Isoprenaline response.
# Cells were seeded to give about 90% confluency for testing.
# 25 μl/well each dose of compound was transferred into a cAMP-Flashplate® (NEN, SMP004B), with 1% DMSO as basal controls and 100 nM Isoprenaline as max controls. This was diluted 1:2 by the addition of 25 μl/well PBS. […] Compounds were incubated with 50 μu/well cells for 1 hour. […] Dose-response data was expressed as % Isoprenaline activity and fitted using a four parameter sigmoid fit.
# T1 sequence (P07550 whole entry): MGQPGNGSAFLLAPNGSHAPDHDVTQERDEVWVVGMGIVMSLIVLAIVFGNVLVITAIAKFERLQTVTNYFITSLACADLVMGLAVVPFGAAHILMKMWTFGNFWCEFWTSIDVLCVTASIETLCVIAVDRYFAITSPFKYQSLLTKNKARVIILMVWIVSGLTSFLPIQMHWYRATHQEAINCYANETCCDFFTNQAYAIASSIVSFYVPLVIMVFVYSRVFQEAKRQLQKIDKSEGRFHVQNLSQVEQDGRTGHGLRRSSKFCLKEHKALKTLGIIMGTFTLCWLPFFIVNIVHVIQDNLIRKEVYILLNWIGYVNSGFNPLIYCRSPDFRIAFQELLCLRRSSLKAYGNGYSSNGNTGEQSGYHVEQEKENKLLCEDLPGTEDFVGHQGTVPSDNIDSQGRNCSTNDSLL
row,SMILES,EC50
1,"Cc1ccc(CNC(=O)Cc2cccc(C[C@@H](C)NC[C@H](O)c3ccc(O)c(CO)c3)c2)cc1C [Example 12, N-(3,4-Dimethylbenzyl)-2-(3-{(2R)-2-[(2R)-2-hydroxy-2-(4-hydroxy-3-hydroxymethyl-phenyl)-ethylamino]-propyl}-phenyl)-acetamide]",0.009 nM
2,"C[C@H](Cc1cccc(CC(=O)NCc2ccccn2)c1)NC[C@H](O)c1ccc(O)c(CO)c1 [Example 7, 2-(3-{(2R)-2-[(2R)-2-Hydroxy-2-(4-hydroxy-3-hydroxymethyl-phenyl)-ethylamino]-propyl}-phenyl)-N-(pyridin-2-ylmethyl)-acetamide]",0.028 nM
3,"C[C@H](Cc1cccc(CC(=O)NCc2ccccc2O)c1)NC[C@H](O)c1ccc(O)c(CO)c1 [Example 3, N-(2-Hydroxybenzyl)-2-(3-{(2R)-2-[(2R)-2-hydroxy-2-(4-hydroxy-3-hydroxymethyl-phenyl)-ethylamino]-propyl}-phenyl)-acetamide]",0.007 nM
4,"C[C@H](Cc1cccc(CC(=O)NCCc2ccccc2)c1)NC[C@H](O)c1ccc(O)c(CO)c1 [Example 15, 2-(3-{(2R)-2-[(2R)-2-Hydroxy-2-(4-hydroxy-3-hydroxymethyl-phenyl)-ethylamino]-propyl}-phenyl)-N-(2-phenylethyl)acetamide]",0.056 nM
5,"C[C@H](Cc1cccc(CC(=O)NCc2ccc(Cl)c(Cl)c2)c1)NC[C@H](O)c1ccc(O)c(CO)c1 [Example 5, N-(3,4-Dichlorobenzyl)-2-(3-{(2R)-2-[(2R)-2-hydroxy-2-(4-hydroxy-3-hydroxymethyl-phenyl)-ethylamino]-propyl}-phenyl)-acetamide]",0.024 nM
6,"COc1cccc(OC)c1CNC(=O)Cc1cccc(C[C@@H](C)NC[C@H](O)c2ccc(O)c(CO)c2)c1 [Example 1, N-(2,6-Dimethoxybenzyl)-2-(3-{(2R)-2-[(2R)-2-hydroxy-2-(4-hydroxy-3-hydroxymethyl-phenyl)-ethylamino]-propyl}-phenyl)-acetamide]",0.017 nM

# The remaining compounds from weak to strong by EC50, led by results:
row,EC50,SMILES
1,0.114 nM,"C[C@H](Cc1cccc(CC(=O)NCc2ccc(OC(F)(F)F)cc2)c1)NC[C@H](O)c1ccc(O)c(CO)c1 [Example 10, 2-(3-{(2R)-2-[(2R)-2-Hydroxy-2-(4-hydroxy-3-hydroxymethyl-phenyl)-ethylamino]-propyl}-phenyl)-N-(4-trifluoromethoxybenzyl)-acetamide]"
2,0.012 nM,"C[C@H](Cc1cccc(CC(=O)NC2Cc3ccccc3C2)c1)NC[C@H](O)c1ccc(O)c(CO)c1 [Example 4, 2-(3-{(2R)-2-[(2R)-2-Hydroxy-2-(4-hydroxy-3-hydroxymethyl-phenyl)-ethylamino]-propyl}-phenyl)-N-indan-2-yl-acetamide]"
3,0.01 nM,"C[C@H](Cc1cccc(CC(=O)NCc2ccc(C(N)=O)cc2)c1)NC[C@H](O)c1ccc(O)c(CO)c1 [Example 8, 4-{(2-(3-{(2R)-2-[(2R)-2-Hydroxy-2-(4-hydroxy-3-hydroxymethyl-phenyl)-ethylamino]-propyl}-phenyl)-acetylamino)-methyl}-benzamide]"
4,0.007 nM,"C[C@H](Cc1cccc(CC(=O)NCc2ccc(S(N)(=O)=O)cc2)c1)NC[C@H](O)c1ccc(O)c(CO)c1 [Example 6, N-[4-(Aminosulfonyl)benzyl]-2-(3-{(2R)-2-[(2R)-2-hydroxy-2-(4-hydroxy-3-hydroxymethyl-phenyl)-ethylamino]-propyl}-phenyl)-acetamide]"
